This is an account of results in patent US20210395310A1, “Cyclic Peptide” (The University of Tokyo, priority 2018, published 2021).

Positions of bridges follow the written chain, without caps; N, C: chain ends. Non-standard residues stand in square brackets, D forms with d. Residues, ends and D or L forms follow the SMILES beside them. PEG12 = NCCOCCOCCOCCOCCOCCOCCOCCOCCOCCOCCOCCOCCC(=O)O; βAla = NCCC(=O)O

For orientation: Kd means the concentration at which binding is half-saturated.

Assay [1] deals with T1, HGF (Homo sapiens, UniProt P14210).
T1 construct: the full-length human HGF cDNA was cloned into pEHX1.1 plasmid; made in house; host or cells: Chinese hamster ovary (CHO) cells
Nature of the assay: Change in conformational structure of HGF: trypsin digestion. To be noted: HGF 2.5 μM ± HiP-8 10 μM, room temperature, 30 minutes. The procedure: System of HGF (2.5 μM) with or without HiP-8 were digested with trypsin at room temperature for 30 minutes. A trypsin:HGF molar ratio was set at 0:1, 0.004:1, 0.012:1, 0.037:1, 0.11:1, 0.33:1, and 1:1. The product obtained by digestion was analyzed on from 5 to 20% SDS-PAGE under reducing conditions and stained with Coomassie Blue.
Target sequence in this assay (P14210 32-489 isoform P14210-3): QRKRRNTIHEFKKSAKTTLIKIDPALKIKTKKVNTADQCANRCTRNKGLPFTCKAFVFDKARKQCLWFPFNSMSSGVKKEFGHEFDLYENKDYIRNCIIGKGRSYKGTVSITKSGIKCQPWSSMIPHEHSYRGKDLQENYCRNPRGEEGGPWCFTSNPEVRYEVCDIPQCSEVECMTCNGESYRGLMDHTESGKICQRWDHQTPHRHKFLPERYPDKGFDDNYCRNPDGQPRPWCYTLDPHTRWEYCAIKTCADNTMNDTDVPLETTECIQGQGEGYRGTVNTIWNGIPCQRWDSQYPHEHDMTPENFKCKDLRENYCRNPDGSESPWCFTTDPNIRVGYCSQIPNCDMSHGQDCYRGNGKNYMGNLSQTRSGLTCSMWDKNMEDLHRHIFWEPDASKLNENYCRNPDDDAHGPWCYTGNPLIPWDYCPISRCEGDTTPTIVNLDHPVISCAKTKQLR
Target sequence in this assay (P14210 495-728): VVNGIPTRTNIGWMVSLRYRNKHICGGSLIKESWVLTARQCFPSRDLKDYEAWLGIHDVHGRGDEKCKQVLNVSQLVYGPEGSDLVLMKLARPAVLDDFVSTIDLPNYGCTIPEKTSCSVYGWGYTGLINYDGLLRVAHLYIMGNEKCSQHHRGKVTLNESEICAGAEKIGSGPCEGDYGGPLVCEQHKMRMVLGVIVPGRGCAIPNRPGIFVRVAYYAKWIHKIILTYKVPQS

In assay [2] the target is T1, HGF. Nature of the assay: Binding of cyclic peptides to immobilized HGF by SPR (Biacore T200). Particulars: immobilized biotinylated HGF, single cycle kinetics. The protocol:
Binding of the cyclic peptides to immobilized HGF was measured using surface plasmon resonance (SPR) with Biacore T200 (product of GE Healthcare). Specifically, 2000 resonance units (RU) of biotinylated HGF was immobilized onto a CAP sensor chip by using a biotin capture kit (product of GE Healthcare).
Binding of the cyclic peptides was tested by injecting varying concentrations of the cyclic peptides into an HBS EP+buffer (10 mM HEPES (pH 7.4), 150 mM NaCl, 3 mM EDTA, and 0.05% (v/v) Surfactant P20) containing 0.1% DMSO at a flow rate of 30 μl/min. Binding of the cyclic peptides to HGF was analyzed by single cycle kinetics analysis.
(In SPR one partner is held on a chip, and binding of the other changes the refractive index at the surface.)

For another assay, the target named is T2, HGF-MET interaction (Homo sapiens, UniProt P14210).
T2 construct: the full-length human HGF cDNA was cloned into pEHX1.1 plasmid; made in house; host or cells: Chinese hamster ovary (CHO) cells (HGF)
As to the kind of experiment: Competition of HiP-8 against binding between HGF or HGF fragment and MET ECD by SPR. Particulars: immobilized MET external domain, varying HiP-8 concentrations. The procedure:
Competition of HiP-8 against the binding between HGF or HGF fragment and MET ECD was measured by surface plasmon resonance (SPR) with Biacore 3000 (product of GE Flealthcare). His-labeled MET-ECD was supported on the surface of a nitrilotriacetic acid (NTA)-coated chip at 1000 RU. HiP-8 was mixed in advance at gradually increasing concentrations with 5 nM HGF, 30 nM NK4, or 30 nM SP fragment, and the resulting mixture was tested in 10 mM TBS (pH 7.4), 300 mM NaCl, and 0.05% Tween 20 (v/v) at a flow rate of 30 μl/min.

The next assay concerns the target T3, tcHGF (Homo sapiens, UniProt P14210).
T3 construct: subjected to extracellular processing (cleavage) by a specific protease and is to be converted into two-chain HGF; tissue US Biomax FLU401B; host or cells: frozen human lung cancer tissue sections
Nature of the assay: Tissue staining of frozen human lung cancer tissue. To be noted: thirty six lung cancer tissue sections. The protocol:
A frozen human lung cancer tissue array FLU401B was obtained from US Biomax. A tissue section was fixed in a 4% (w/v) paraformaldehyde PBS solution at room temperature for 30 minutes, treated for one hour with a 3% (w/v) bovine serum-derived albumin (BSA) PBS solution to prevent non-specific adsorption of a probe, and incubated overnight at 4° C. with HiP-8-PEG11-biotin, a primary antibody against human HGF (clone: t5A11, Umitsu M, Sakai K, Ogasawara S, Kaneko M, Asaki R, Tamura-Kawakami K, Kato Y, Matsumoto K, Takagi J. Probing conformational and functional states of human hepatocyte growth factor by a panel of monoclonal antibodies. Scientific Reports, 6: 33149, 2016), or phosphorylated MET (phospho Y1230/1234/Y1235, product of Abeam) diluted with Can Get Signal (registered trademark) antibody staining (product of Toyobo).
After washing three times with PBS, the probes were detected with streptavidin or goat anti-mouse IgG labeled with Alexa Fluor 488 and goat anti-rabbit IgG (product of Thermo Fisher Scientific) labeled with Alexa Fluor 594.
For semi-quantitative detection of antibody staining, stained region and mixed region in each tissue was quantitatively determined by ImageJ software (product of NIH). […]

A further assay relates to PC-9 cells. Nature of the assay: Gefitinib resistance test. The class given is cell-based, human. To be noted: gefitinib, HGF 20 ng/mL, 72 hours. The procedure:
The resistance to gefitinib, an anticancer agent, was tested by seeding human lung cancer cells, PC-9 cells, on a 24-well plate and cultured for 24 hours on a RPMI medium containing 10% fetal bovine serum. The number of living cells was counted after non-addition or addition of gefitinib ([…]), HGF (20 ng/mL), or HiP8-PEG11 (1-1000 nM) and culturing for 72 hours.

Assay [3] concerns phosphorylation of MET, Gab1, Akt, and Erk1/2. Nature of the assay: Western blotting analysis of HGF-induced phosphorylation in EHMES-1 cells. The class given is cell-based. To be noted: 2 nM HGF, HiP-8 10, 100, 1,000, 10,000 nM. The protocol: EHMES-1 cells were cultured on a 6-well plate until they were from 80 to 90% confluent. After starvation for 6 hours, the cells were stimulated for 10 minutes with 2 nM hHGF in a culture medium in the absence of a cyclic peptide or in the presence of 10, 100, 1,000, or 10,000 nM cyclic peptide. The resulting cells were washed with PBS and lysed with 200 μl of lysis buffer 17 (product of R&D Systems) containing 1× Complete protease inhibitor cocktail (product of Roche). The protein concentration was measured by BCA assay (product of Thermo Fisher Scientific), and the protein was provided for 10% polyacrylamide gel SDS-PAGE. The protein was transferred onto a PVDF (polyvinylidene difluoride) membrane (Bio-Rad) and detected using a Can Get Signal (registered trademark) solution 1 containing a primary antibody (diluted at 1:2000), that is, MET (CST, 25H2), phospho-MET (Tyr1234/1235) (CST, D26), Akt (CST, 11E7), phospho-Akt (Ser473) (CST, D9E), Erk1/2 (CST, 137F5), phospho-Erk1/2 (Thr202/Tyr204) (CST, D13.14.4E), Gab1 (CST) and phospho-Gab1 (Tyr627) (CST, C32H2), and Can Get Signal (registered trademark) solution 2 (product of Toyobo) containing a horseradish peroxidase-bound secondary antibody (product of Dako) (diluted at 1:5000). […]
(Immunoblotting shows a protein as a band on a membrane.)

Another assay relates to B16-F10 melanoma. Nature of the assay: Cell migration test. The class given is cell-based. To be noted: transwell, 16 hours. The procedure:
B16F10 cells (1×10^5 cells/insert) cultured in 200 μl of a RPMI1640 medium containing 0.5% FBS were seeded in the upper insert (transwell having a diameter of 8 mm, product of Corning) while 800 μl of a RPMI1640 medium with or without hHGF or HiP-8, or an anti-human HGF rabbit polyclonal antibody and supplemented with 0.5% FBS was added to the bottom chamber. The cells were cultured for 16 hours and fixed with 4% PFA solution in PBS. The cells attached to the bottom surface of the membrane were stained with 0.4% crystal violet solution in 20% methanol and the number of cells was counted.

Another assay has as its target T4, scHGF(Xa) (Homo sapiens, UniProt P14210, K491I/L493G/Q492E).
T4 construct: The full-length HGF protein and N-terminally truncated HGF protein; hexahistidine (with TEV site) (C, cleaved yes); made in house; host or cells: Expi293F cells
Nature of the assay: Binding of scHGF(Xa) to immobilized HiP8-PEG11 by SPR (Biacore 3000). Particulars: immobilized HiP-8-PEG11. The protocol: (§1) Binding of HGF and HGF fragments to immobilized HiP8-PEG11 was measured by surface plasmon resonance (SPR) with Biacore 3000 (product of Ge Flealthcare). Hip8-PEG11-biotin was supported on the surface of a streptavidin-coated chip at 10 RU (resonance unit). The test was performed by injecting HGF and HGF fragments with varying concentrations into 10 mM TBS (pH 7.4), 150 mM NaCl, and 0.05% Tween 20 (v/v) at a flow rate of 30 μl/min. Binding affinity was analyzed from a fitting model of steady-state affinity by multi-cycle kinetics analysis.
(§2) HGF was an active type HGF without substitution of the cleavage site of wild type HGF (KQLR/V) with the recognition sequence of Factor Xa (IEGR/V) and domain-deficiency and was a two-chain HGF capable of activating MET. tcHGF (Xa) was an HGF with substitution of the cleavage site of the HGF with the recognition sequence of Factor Xa (IEGR/V) and was cleaved into two chains by the Factor Xa treatment. It was also a two-chain HGF capable of activating MET. On the other hand, scHGF (Xa) was obtained by substituting the cleavage site of HGF with the recognition sequence of Factor Xa (IEGR/V).

Assay [4] concerns MET activation/tyrosine phosphorylation. Nature of the assay: MET activation inhibition test in mice. Type of assay: in vivo. To be noted: human HGF knocked-in SCID mice with PC-9 tumors, intravenous injection. An excerpt:
PC-9 human non-small cell lung cancer cells, which were to express human HGF, were transplanted subcutaneously to human HGF knocked-in SCID mice at 3×10^6 cells/site. On day 28 after transplantation, HiP8-PEG11 in PBS/phosphate buffered physiological saline solution was intravenously injected. The tumor tissue was removed, and MET activated/tyrosine-phosphorylated and a total MET amount in the tumor tissue were quantitatively determined by western blotting with the tissue extract. It is to be noted that the tumor tissue was homogenized in a RIPA buffer solution. Each sample containing […] of the protein was provided for SDS-PAGE and western blotting. Tyrosine-phosphorylated MET and a total MET amount were detected by western blotting.

For assay [5], the target named is T1, HGF. Nature of the assay: Binding of HGF to immobilized HiP8-PEG11 by SPR (Biacore 3000). Particulars: immobilized HiP-8-PEG11, read-out: KD of HGF binding to immobilized peptide. The procedure:
as §1, §2

T3 sequence (P14210 32-494 limits assumed): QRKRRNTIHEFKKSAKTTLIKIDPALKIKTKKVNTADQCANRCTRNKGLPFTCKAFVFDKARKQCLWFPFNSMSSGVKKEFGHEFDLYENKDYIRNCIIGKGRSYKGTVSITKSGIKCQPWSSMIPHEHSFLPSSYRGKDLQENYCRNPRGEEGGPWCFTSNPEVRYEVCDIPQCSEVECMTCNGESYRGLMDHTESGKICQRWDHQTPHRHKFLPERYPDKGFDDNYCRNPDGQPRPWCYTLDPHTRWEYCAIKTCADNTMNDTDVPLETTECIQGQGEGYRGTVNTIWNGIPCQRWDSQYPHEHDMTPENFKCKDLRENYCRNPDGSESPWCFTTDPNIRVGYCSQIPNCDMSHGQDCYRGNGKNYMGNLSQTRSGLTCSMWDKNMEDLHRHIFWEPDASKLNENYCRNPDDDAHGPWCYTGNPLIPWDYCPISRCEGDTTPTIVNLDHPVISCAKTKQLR
T3 sequence (P14210 495-728 limits assumed): as the sequence (P14210 495-728) above
T4 sequence (P14210 32-723 isoform P14210-3 K486I/Q487E/L488G): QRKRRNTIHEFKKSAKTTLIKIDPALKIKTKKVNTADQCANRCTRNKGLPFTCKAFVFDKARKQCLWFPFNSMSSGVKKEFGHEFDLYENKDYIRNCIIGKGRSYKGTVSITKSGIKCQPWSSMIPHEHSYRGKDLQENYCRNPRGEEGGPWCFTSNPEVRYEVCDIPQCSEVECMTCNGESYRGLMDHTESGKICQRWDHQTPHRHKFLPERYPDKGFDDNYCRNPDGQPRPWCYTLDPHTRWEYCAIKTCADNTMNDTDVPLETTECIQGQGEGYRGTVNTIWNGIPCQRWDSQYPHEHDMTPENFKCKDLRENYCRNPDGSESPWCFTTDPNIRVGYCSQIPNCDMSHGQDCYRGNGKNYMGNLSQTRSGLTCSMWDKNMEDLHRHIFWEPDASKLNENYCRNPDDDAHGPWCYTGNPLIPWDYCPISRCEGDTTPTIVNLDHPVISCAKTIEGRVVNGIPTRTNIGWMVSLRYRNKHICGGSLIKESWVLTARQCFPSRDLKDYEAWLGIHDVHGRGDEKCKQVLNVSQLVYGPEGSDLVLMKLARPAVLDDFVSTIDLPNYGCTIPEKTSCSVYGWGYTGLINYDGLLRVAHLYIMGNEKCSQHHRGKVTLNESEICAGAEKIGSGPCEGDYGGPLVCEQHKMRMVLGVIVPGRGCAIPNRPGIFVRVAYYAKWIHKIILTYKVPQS
T2 sequence (P14210 32-489 isoform P14210-3): as the sequence (P14210 32-489 isoform P14210-3) above
T2 sequence (P14210 495-728): as the sequence (P14210 495-728) above

For `CC(C)C[C@@H]1NC(=O)[C@@H]2CCCN2C(=O)[C@@H](Cc2c[nH]c3ccccc23)NC(=O)CSC[C@@H](C(=O)NCC(N)=O)NC(=O)[C@H](CCCNC(=N)N)NC(=O)[C@H](CCCCN)NC(=O)[C@H](CO)NC(=O)[C@H](Cc2ccc(O)cc2)NC(=O)[C@H](Cc2c[nH]c3ccccc23)NC(=O)[C@H](Cc2c[nH]c3ccccc23)NC(=O)[C@H](CCCCN)NC(=O)[C@H](CO)NC1=O` [HiP-8, PLSKWWYSKR], on HGF [1], the “structural change of HGF (trypsin proteolysis of SP chain)” value is reported as “induced a change in the conformation of HGF”. In addition, at HGF [2] (read-out: Ka (association rate)), the kon worked out at 1.1e+06 M⁻¹ s⁻¹. For the same compound, the koff on HGF [2] (read-out: Kd (dissociation rate)) worked out at 0.0004 s⁻¹. Also, the “mode of inhibition of HGF-MET interaction” value on HGF-MET interaction is listed as “uncompetitive inhibition of HGF-MET interaction”. Besides, the “correlation of staining intensity of tcHGF detected by peptide with pMET” value on tcHGF is reported as “strong correlation with the staining intensity of pMET”. Also, in the assay on PC-9 cells, the “effect on gefitinib resistance induced by HGF” value is on record as “inhibited gefitinib resistance induced by HGF”. Also, the “phosphorylation of MET, Gab1, Akt, and Erk1/2 induced by HGF” value in assay [3] is “inhibited phosphorylation of MET, Gab1, Akt, and Erk1/2”. The “B16-F10 melanoma migration induced by HGF” value in the assay on B16-F10 melanoma was “inhibited B16-F10 melanoma migration induced by HGF at a level equivalent to that of an anti-HGF antibody”.

Consider `CC(C)C[C@@H]1NC(=O)[C@@H]2CCCN2C(=O)[C@H](Cc2c[nH]c3ccccc23)NC(=O)CSC[C@@H](C(=O)NCCC(=O)NCCOCCOCCOCCOCCOCCOCCOCCOCCOCCOCCOCCOCCC(N)=O)NC(=O)[C@H](CCCNC(=N)N)NC(=O)[C@H](CCCCN)NC(=O)[C@H](CO)NC(=O)[C@H](Cc2ccc(O)cc2)NC(=O)[C@H](Cc2c[nH]c3ccccc23)NC(=O)[C@H](Cc2c[nH]c3ccccc23)NC(=O)[C@H](CCCCN)NC(=O)[C@H](CO)NC1=O` [HiP-8-PEG11] ({CH2CO}-WPLSKWWYSKRC[βAla][PEG12]-NH2; thioether N-12), for which the “binding of scHGF(Xa) to immobilized peptide” value at scHGF(Xa) was “very limited portion of the scHGF(Xa) bound”. For the same compound, the “MET activation/tyrosine phosphorylation in tumor tissue” value in assay [4] is reported as “dose-dependent inhibition of MET activation/tyrosine phosphorylation”. Moreover, at HGF [5], the dissociation constant (Kd) came out at 0.9 nM.
